For the assay, the target named is T1, FAK (Homo sapiens, UniProt Q05397).
T1 construct: homozygous knock-in of a HiBiT tag (Promega Corporation, Madison, WI) to the C-terminus of the FAK gene in its natural genomic locus; endogenous in cells; host or cells: JHH-4-FAK-HiBiT clone d01 (CRISPR-Cas9 knock-in at the endogenous locus)
Briefly: FAK-HiBiT Degradation Assay. It counts as cell-based. The following applies: for DC50: read-out: FAK HiBiT EC50; for FAK HiBiT Ymin: lower limit of the four parameter fit (value A), Ymax derived using DMSO control, JHH-4-FAK-HiBiT cells, two hours. The source says:
To generate JHH-4-FAK-HiBiT cells for the FAK degradation assay, JHH-4 cells (Japanese Collection of Research Biosources Cell Bank, Japan) were transfected with ribonucleoprotein reagents to introduce, by CRISPR-Cas9 editing, the homozygous knock-in of a HiBiT tag (Promega Corporation, Madison, WI) to the C-terminus of the FAK gene in its natural genomic locus. Clonal cell populations were established by expanding single cells after CRISPR-Cas9 editing, with a clonal cell line named JHH-4-FAK-HiBiT clone d01 confirmed by next generation DNA sequencing to contain the expected HiBiT edited FAK gene and was selected for FAK degradation screening. Cells were selected and maintained in complete DMEM media (DMEM, 10% Heat Inactivated FBS, and Non-Essential Amino Acids at 37° C. and 5% CO2). Cells were passaged every 3-4 days by reseeding 0.5×10^6 cells in a T75 flask.
Cells were dispensed into 384-well white plates (Corning #3570, NY) that were pre-spotted with compounds using an acoustic dispenser (Echo acoustic transfer system, Beckman Coulter Life Sciences, Carlsbad, CA) as a 10-point dose response curve with a 3-fold dilution starting at 1 μM and including a DMSO control. Twenty-five microliters of media containing 2000 JHH-4-FAK-HiBiT Clone d01 cells was dispensed per well. Assay plates were incubated at 37° C. with 5% CO2 for two hours. After incubation, 25 μL of Nano-Glo HiBiT Lytic Reagent Working Solution (Promega Corporation, Madison, WI) was added to each well and incubated at room temperature for 10 minutes protected from light. After 10 minutes, luminescence was read on a PHERAstar luminometer (BMG Labtech, Cary, NC).
To determine the half-maximal effective concentration (EC50) values for FAK-HiBIT degradation, a four parameter logistic model was used: (Sigmoidal Dose-Response Model)(FIT=(A+((B−A)/1+((C/x)^D)))) where C is the inflection point (EC50), D is the Hill slope, and A and B are the low and high limits of the fit respectively). The lower limit of the fit (value A) is referred to as Ymin. The maximum limit constraint, Ymax, was derived using DMSO control. The curves were processed and evaluated using Dotmatics Atlas (Insightful Science, LLC, Boston, MA).
Background: HiBiT is a short tag that completes a luciferase, so light tracks the accessible tagged protein.

Where [1] appears, read: JHH-4-FAK-HiBiT clone d01 cells, two hours incubation, 10-point dose response, 3-fold dilution starting at 1 μM, Nano-Glo HiBiT luminescence.

Each structure is given as a SMILES string. pEC50: −log10 of the molar value.

T1 sequence (Q05397 whole entry): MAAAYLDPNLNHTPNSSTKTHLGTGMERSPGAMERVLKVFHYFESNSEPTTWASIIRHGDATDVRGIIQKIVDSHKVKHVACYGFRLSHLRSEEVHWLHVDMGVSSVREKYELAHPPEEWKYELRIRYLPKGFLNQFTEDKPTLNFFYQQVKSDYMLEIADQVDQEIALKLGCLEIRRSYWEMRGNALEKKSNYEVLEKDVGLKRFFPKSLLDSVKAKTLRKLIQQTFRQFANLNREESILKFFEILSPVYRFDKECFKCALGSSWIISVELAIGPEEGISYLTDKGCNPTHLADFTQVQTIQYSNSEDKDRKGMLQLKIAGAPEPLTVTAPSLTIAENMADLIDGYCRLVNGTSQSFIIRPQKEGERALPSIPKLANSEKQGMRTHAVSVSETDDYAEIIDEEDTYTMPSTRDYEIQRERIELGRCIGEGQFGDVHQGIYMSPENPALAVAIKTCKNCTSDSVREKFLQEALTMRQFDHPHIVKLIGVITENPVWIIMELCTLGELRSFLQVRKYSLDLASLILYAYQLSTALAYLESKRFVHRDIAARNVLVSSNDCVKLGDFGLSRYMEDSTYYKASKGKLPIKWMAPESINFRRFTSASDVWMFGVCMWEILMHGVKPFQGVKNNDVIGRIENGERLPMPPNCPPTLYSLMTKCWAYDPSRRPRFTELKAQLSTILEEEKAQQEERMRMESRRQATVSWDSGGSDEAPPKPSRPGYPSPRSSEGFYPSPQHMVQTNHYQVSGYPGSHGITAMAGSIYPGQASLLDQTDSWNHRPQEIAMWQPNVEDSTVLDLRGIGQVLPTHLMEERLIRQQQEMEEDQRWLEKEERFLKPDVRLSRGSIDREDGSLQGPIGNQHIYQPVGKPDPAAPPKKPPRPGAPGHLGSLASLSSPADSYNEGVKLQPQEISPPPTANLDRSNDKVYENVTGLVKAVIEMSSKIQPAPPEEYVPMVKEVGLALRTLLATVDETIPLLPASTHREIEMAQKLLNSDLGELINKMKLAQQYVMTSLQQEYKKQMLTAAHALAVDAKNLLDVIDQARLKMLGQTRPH

With `N#Cc1ccc(-c2cc(N3CCC3)nc3c2cnn3Cc2cnc3c(c2)CN(C2CCC(=O)NC2=O)C3=O)c(Cl)c1` (centres unmarked) [Example 118, 4-[6-(azetidin-1-yl)-1-{[6-(2,6-dioxopiperidin-3-yl)-7-oxo-5H,6H,7H-pyrrolo[3,4-b]pyridin-3-yl]methyl}-1H-pyrazolo[3,4-b]pyridin-4-yl]-3-chlorobenzonitrile], the “FAK HiBiT Ymin” value turned out to be 12.49. In addition, the DC50 under setting [1] is 79.6 nM.

Consider `Cc1ncccc1-c1cc(N2CC(F)C2)nc2c1cnn2Cc1ccc2c(c1)CN(C1CCC(=O)NC1=O)C2=O` (centres unmarked) [Example 139, 3-(5-{[6-(3-fluoroazetidin-1-yl)-4-(2-methylpyridin-3-yl)-1H-pyrazolo[3,4-b]pyridin-1-yl]methyl}-1-oxo-2,3-dihydro-1H-isoindol-2-yl)piperidine-2,6-dione], for which the “FAK HiBiT Ymin” value is on record as 93.99. For the same molecule, under setting [1], the DC50 is at least 1000 nM.

Turning to `CC(C)Nc1cc(-c2ccncc2Cl)c2cnn(Cc3ccc4c(c3)CN(C3CCC(=O)NC3=O)C4=O)c2n1` (centres unmarked) [Example 116, 3-(5-{[4-(3-chloropyridin-4-yl)-6-[(propan-2-yl)amino]-1H-pyrazolo[3,4-b]pyridin-1-yl]methyl}-1-oxo-2,3-dihydro-1H-isoindol-2-yl)piperidine-2,6-dione], the “FAK HiBiT Ymin” value is recorded as 34.23. Also, the DC50 under setting [1] worked out at 67.2 nM.

Turning to `Cc1cccnc1-c1cc(N2CC(F)C2)nc2c1cnn2Cc1ccc2c(c1)CN(C1CCC(=O)NC1=O)C2=O` (centres unmarked) [Example 112, 3-(5-{[6-(3-fluoroazetidin-1-yl)-4-(3-methylpyridin-2-yl)-1H-pyrazolo[3,4-b]pyridin-1-yl]methyl}-1-oxo-2,3-dihydro-1H-isoindol-2-yl)piperidine-2,6-dione], the “FAK HiBiT Ymin” value stood at 18.51. The DC50 under setting [1] came to 46.7 nM.

As for `CN(C)c1cc(-c2ncc(C#N)cc2Cl)c2ccn(Cc3ccc4c(c3)CN(C3CCC(=O)NC3=O)C4=O)c2n1` (centres unmarked) [Example 13, 5-chloro-6-(6-(dimethylamino)-1-((2-(2,6-dioxopiperidin-3-yl)-1-oxoisoindolin-5-yl)methyl)-1H-pyrrolo[2,3-b]pyridin-4-yl)nicotinonitrile], the “FAK HiBiT Ymin” value came out at 4.03. The pEC50 under setting [1] is 8.10.

On to `CN(C)c1cc(-c2ccc(C#N)cc2Cl)c2ncn(Cc3ccc4c(c3)CN(C3CCC(=O)NC3=O)C4=O)c2n1` (centres unmarked) [Example 18], for which the “FAK HiBiT Ymin” value was 4.01. The DC50 under setting [1] was found to be 8.37 nM.

Consider `O=C1CCC(N2Cc3cc(Cn4ncc5c(-c6ncccc6Cl)cc(N6CCC6)nc54)ccc3C2=O)C(=O)N1` (centres unmarked) [Example 88, 3-(5-{[6-(azetidin-1-yl)-4-(3-chloropyridin-2-yl)-1H-pyrazolo[3,4-b]pyridin-1-yl]methyl}-1-oxo-2,3-dihydro-1H-isoindol-2-yl)piperidine-2,6-dione], for which the “FAK HiBiT Ymin” value amounted to 10.98. Further, the DC50 under setting [1] stood at 13 nM.

In the case of `N#Cc1ccc(-c2cc(N3CCC3)nc3c2c(Cl)nn3Cc2ccc3c(c2)CN(C2CCC(=O)NC2=O)C3=O)c(Cl)c1` (centres unmarked) [Example 70, 4-[6-(azetidin-1-yl)-3-chloro-1-{[2-(2,6-dioxopiperidin-3-yl)-1-oxo-2,3-dihydro-1H-isoindol-5-yl]methyl}-1H-pyrazolo[3,4-b]pyridin-4-yl]-3-chlorobenzonitrile], the “FAK HiBiT Ymin” value was 13.38. The DC50 under setting [1] came to 5.6 nM.

Take `CC(C)Nc1cc(-c2ncccc2Cl)c2cnn(Cc3ccc4c(c3)CN(C3CCC(=O)NC3=O)C4=O)c2n1` (centres unmarked) [Example 117, 3-(5-{[4-(3-chloropyridin-2-yl)-6-[(propan-2-yl)amino]-1H-pyrazolo[3,4-b]pyridin-1-yl]methyl}-1-oxo-2,3-dihydro-1H-isoindol-2-yl)piperidine-2,6-dione]: the “FAK HiBiT Ymin” value is listed as 25.54. In addition, the DC50 under setting [1] amounted to 73.7 nM.

As for `CC(C)(O)c1ccc(Cl)c(-c2cc(N3CCC3)nc3c2cnn3Cc2ccc3c(c2)CN(C2CCC(=O)NC2=O)C3=O)c1` (centres unmarked) [Example 124, 3-(5-{[6-(azetidin-1-yl)-4-[2-chloro-5-(2-hydroxypropan-2-yl)phenyl]-1H-pyrazolo[3,4-b]pyridin-1-yl]methyl}-1-oxo-2,3-dihydro-1H-isoindol-2-yl)piperidine-2,6-dione], the “FAK HiBiT Ymin” value worked out at 43.76. In addition, the DC50 under setting [1] was determined as 124 nM.

On to `CC(C)Nc1cc(-c2ccc(C#N)cc2F)c2cnn(Cc3ccc4c(c3)CN(C3CCC(=O)NC3=O)C4=O)c2n1` (centres unmarked) [Example 92, 4-(1-{[2-(2,6-dioxopiperidin-3-yl)-1-oxo-2,3-dihydro-1H-isoindol-5-yl]methyl}-6-[(propan-2-yl)amino]-1H-pyrazolo[3,4-b]pyridin-4-yl)-3-fluorobenzonitrile], for which the “FAK HiBiT Ymin” value was 26.48. Moreover, the DC50 under setting [1] worked out at 14.1 nM.

As for `N#Cc1ccc(-c2cc(N3CCC3)nc3c2cnn3Cc2ccc3c(n2)CN(C2CCC(=O)NC2=O)C3=O)c(Cl)c1` (centres unmarked) [Example 101, 4-[6-(azetidin-1-yl)-1-{[6-(2,6-dioxopiperidin-3-yl)-5-oxo-5H,6H,7H-pyrrolo[3,4-b]pyridin-2-yl]methyl}-1H-pyrazolo[3,4-b]pyridin-4-yl]-3-chlorobenzonitrile], the “FAK HiBiT Ymin” value is listed as 11.17. For the same molecule, the DC50 under setting [1] is 29.2 nM.

As for `N#Cc1ccc(-c2cc(N3CCC3)nc3c2cnn3Cc2ccc3c(c2)CN(C2CCC(=O)NC2=O)C3=O)c(F)c1` (centres unmarked) [Example 62, 4-[6-(azetidin-1-yl)-1-{[2-(2,6-dioxopiperidin-3-yl)-1-oxo-2,3-dihydro-1H-isoindol-5-yl]methyl}-1H-pyrazolo[3,4-b]pyridin-4-yl]-3-fluorobenzonitrile], the “FAK HiBiT Ymin” value came to 12.88. The DC50 under setting [1] was 3.92 nM.

Take `O=C1CCC(N2Cc3cc(Cn4ncc5c(-c6ncc(C7CC7)cc6F)cc(N6CC(F)C6)nc54)ccc3C2=O)C(=O)N1` (centres unmarked) [Example 86, 3-(5-{[4-(5-cyclopropyl-3-fluoropyridin-2-yl)-6-(3-fluoroazetidin-1-yl)-1H-pyrazolo[3,4-b]pyridin-1-yl]methyl}-1-oxo-2,3-dihydro-1H-isoindol-2-yl)piperidine-2,6-dione]: the “FAK HiBiT Ymin” value was found to be 35.59. Besides, under setting [1], the DC50 was 12.5 nM.

As to `CC(C)Nc1cc(-c2ccc(C#N)cc2Cl)c2cnn(Cc3ccc4c(c3)CN(C3CCC(=O)NC3=O)C4=O)c2n1` (centres unmarked) [Example 68, 3-chloro-4-(1-{[2-(2,6-dioxopiperidin-3-yl)-1-oxo-2,3-dihydro-1H-isoindol-5-yl]methyl}-6-[(propan-2-yl)amino]-1H-pyrazolo[3,4-b]pyridin-4-yl)benzonitrile], the “FAK HiBiT Ymin” value was determined as 15.10. Besides, the DC50 under setting [1] turned out to be 5.19 nM.

Turning to `N#Cc1ccc(-c2cc(N3CCC3)nc3c2cnn3Cc2ccc3c(c2)CN(C2CCC(=O)NC2=O)C3=O)c(Cl)c1` (centres unmarked) [Example 58, 4-[6-(azetidin-1-yl)-1-{[2-(2,6-dioxopiperidin-3-yl)-1-oxo-2,3-dihydro-1H-isoindol-5-yl]methyl}-1H-pyrazolo[3,4-b]pyridin-4-yl]-3-chlorobenzonitrile], the “FAK HiBiT Ymin” value was determined as 7.90. In addition, the DC50 under setting [1] came out at 3.43 nM.

In the case of `N#Cc1ccc(-c2cc(N3CC(F)C3)nc3c2cnn3Cc2ccc3c(c2)CN(C2CCC(=O)NC2=O)C3=O)c(F)c1` (centres unmarked) [Example 71, 4-(1-{[2-(2,6-dioxopiperidin-3-yl)-1-oxo-2,3-dihydro-1H-isoindol-5-yl]methyl}-6-(3-fluoroazetidin-1-yl)-1H-pyrazolo[3,4-b]pyridin-4-yl)-3-fluorobenzonitrile], the “FAK HiBiT Ymin” value is recorded as 11.11. Moreover, the DC50 under setting [1] is 5.67 nM.

On to `O=C1CCC(N2Cc3cc(Cn4ncc5c(-c6ccc(C7(O)CCOCC7)cn6)cc(N6CC(F)C6)nc54)ccc3C2=O)C(=O)N1` (centres unmarked) [Example 122, 3-(5-{[6-(3-fluoroazetidin-1-yl)-4-[5-(4-hydroxyoxan-4-yl)pyridin-2-yl]-1H-pyrazolo[3,4-b]pyridin-1-yl]methyl}-1-oxo-2,3-dihydro-1H-isoindol-2-yl)piperidine-2,6-dione], for which the “FAK HiBiT Ymin” value amounted to 74.73. For the same molecule, the DC50 under setting [1] came out at 98.1 nM.

In the case of `Cc1nn(Cc2ccc3c(c2)CN(C2CCC(=O)NC2=O)C3=O)c2nc(N3CCC3)cc(-c3ccc(C#N)cc3Cl)c12` (centres unmarked) [Example 60, 4-[6-(azetidin-1-yl)-1-{[2-(2,6-dioxopiperidin-3-yl)-1-oxo-2,3-dihydro-1H-isoindol-5-yl]methyl}-3-methyl-1H-pyrazolo[3,4-b]pyridin-4-yl]-3-chlorobenzonitrile], the “FAK HiBiT Ymin” value worked out at 9.10. Further, under setting [1], the DC50 was found to be 3.57 nM.

By pEC50 is commonly meant −log10 of the EC50, conventionally taken in molar units. Low readings indicate a large EC50, high ones a small EC50.

For the origin of these results see patent US20260078119A1, “DEGRADER COMPOUNDS AND USES THEREOF” (Bristol-Myers Squibb Company, priority 2024, published 2026).
